{
  "source": "patent US9750755B2",
  "about": "“Antimicrobial compositions and related methods” (DeLaval Holding AB, priority 2006, dated 2017)",
  "key": {"E. coli (ATCC 11229)": {"tested_on": "E. coli (ATCC 11229)", "test": "Modified EN 1656 dilution neutralization test, milk as interferent, 30 seconds contact", "format": "cell-based, Escherichia coli", "settings": "10% lactic acid used alone, typical", "experimental": "(§1) The test bacteria were Eschericia coli (ATCC 11229), which were originally isolated from mastitis infection and obtained on commercial order from Mastitlaboratoriet, SVA, and Staphococcus aureus (ATCC6538 from Microbiologics, St. Cloud, Minn.), which was also isolated from mastitis infection.\n(§2) According to a modified EN1656 dilution neutralization method, freeze dried E. coli (ATCC 11229) and S. aureus (ATCC 6538) were hydrated, grown for four days and transferred. Then bacteria were diluted to form a suspension to have an initial concentration of about 10^8 cfu/mL.\n(§3) Freeze-dried pellets of E. coli (ATCC 11229) and S. aureus (ATCC 6538) were hydrated, placed in test tubes containing nutrient agar and incubated at 37° C. for 24 hours. Sterile buffer (0.25 M phosphate adjusted to pH 7.2) was used to dilute and transfer the bacteria to additional nutrient agar tubes, which were incubated for another 24 hours. S. aureus was then diluted with buffer and transferred to nutrient agar in French bottles, and E. coli was diluted and transferred to fresh nutrient agar tubes. Both types of bacteria were incubated at 37° C. for 72 hours. E. coli was then diluted and transferred to nutrient agar in French bottles. […]\n(§4) The plates with bacterial populations between 25 and 250 were counted and results were expressed as logarithmic reductions according to EN 1656 test method."}, "S. aureus (ATCC 6538)": {"tested_on": "S. aureus (ATCC 6538)", "test": "Modified EN 1656 dilution neutralization test, milk as interferent, 30 seconds contact", "format": "cell-based, Staphylococcus aureus", "settings": "10% lactic acid used alone, typical", "experimental": "as §1, §2, §3, §4"}},
  "data": [
    {"smiles": "CC(O)C(=O)O", "note": "(stereo not drawn) [lactic acid, L(+)-2-Hydroxypropanoic acid]", "values": [
      {"measurement": "log reduction in E. coli concentration", "setting": "E. coli (ATCC 11229)", "value": "five log reduction"},
      {"measurement": "log reduction in S. aureus concentration", "setting": "S. aureus (ATCC 6538)", "value": "less than a three log reduction"}
    ]}
  ]
}
